Measured values reported in patent US9066965B1, “Purified limonin glucoside for prevention and treatment of chronic diseases” (The United States of America, as represented by the …, priority 2012, dated 2015).
Where “and” joins values, the source holds several entries; their conditions need not be identical. Equal entries are not always repeated.

What was measured:
[1] = test system: gamma glutamyl transferase (GGT); test: Plasma GGT activity (Integra 400); assay type: in vivo, human; conditions: 56 days
Protocol: (§1) CMP performed on serum samples at the chemistry laboratory of University of California Medical Center by using the Beckman Coulter DxC800. GGT and CKMB were determined in the EDTA plasma. GGT activity was determined by using Integra 400 Chemistry Analyzer, Roche Diagnostics. CKMB concentration was determined by using the Multiplex kits from Mesoscale Discovery (Gaithersburg, Md. 20877).
(§2) SAS PROC MIXED was used to fit the cross-over model (Littell R C, Milliken G A, Stroup W W, Wolfinger R D, Schabenberger O. SAS System for Mixed Models. Cay, N.C.: SAS Institute Inc.; 2006). Transformations were used when appropriate to stabilize the variances among the diets and periods. The fixed effects were order, diet, the interaction and the covariate; and the random effect was subjects within order. The test for order is a test for carry-over effect. […] Comparisons were made between the values at the end of placebo and LG treatments and using the baseline data as a covariate. Results are presented as means±SEM. Differences were considered statistically significant for P value<0.05.

[2] = Serum lipids and lipoproteins; assay type: in vivo, human
Excerpt: Serum lipids were part of the CMP performed at University of California Medical Center (UCDMC) by using the Beckman Coulter DxC800 instrument. Lipoproteins A1 and B were ascertained in EDTA plasma using a Cobas Integra 400 Plus instrument with Roche reagents (Roche Diagnostics Corp., Indianapolis, Ind.). Lipoproteins C2, C3 and E were quantified in serum using a Cobas Integra 400 Plus instrument with Kamiya reagents (Kamiya Biomedical Co., Seattle, Wash.).
(§3) Results are presented as means±SEM.

[3] = test system: creatinine kinase MB (CKMB); test: Plasma CKMB concentration (Mesoscale multiplex); assay type: in vivo, human; conditions: EDTA plasma; End LG, 500 mg/d, 56 days, n = 10, mean ± SEM
Protocol: as §1, §2

[4] = Complete blood cell count (hematological parameters); assay type: in vivo, human; conditions: End LG, 500 mg/d, 56 days, n = 10, mean ± SEM
[5] = Rules Based Medicine human multi-analyte panel (MAP 1.6), plasma; assay type: in vivo; set-up: Epidermal growth factor: unit not given here
Protocol: Plasma samples prepared from blood collected in EDTA-containing tubes were stored at −80° C. until tested. The samples were thawed at room temperature, vortexed, spun at 13,000×g for 5 minutes for clarification and 100 uL aliquots were removed for MAP analysis into a master microtiter plate. Using automated pipetting, an aliquot of each sample was introduced into one of the capture microsphere multiplexes of the Human MAP 1.6. This MAP comprised of 89 antigens that included markers for oxidative stress, inflammation, immune status, T2DM, CVD, blood clotting, cancer, liver and kidney functions. All plasma samples were tested in duplicate. The mixture of sample and capture microspheres were thoroughly mixed and incubated at room temperature for 1 hour. Multiplexed cocktails of biotinylated, reporter antibodies for each multiplex were then added robotically and after thorough mixing, were incubated for an additional hour at room temperature. Multiplexes were developed using an excess of streptavidin-phycoerythrin solution which was thoroughly mixed into each multiplex and incubated for 1 hour at room temperature. The volume of each multiplexed reaction was reduced by vacuum filtration and the volume increased by dilution into matrix buffer for analysis. Analysis was performed in a Luminex 100 instrument and the resulting data stream was interpreted using proprietary data analysis software developed at Rules-Based Medicine. For each multiplex, both calibrators and controls were included on each microtiter plate. 8-point calibrators were run in the first and last column of each plate and 3-level controls were included in duplicate. Testing results were determined first for the high, medium and low controls for each multiplex to ensure proper assay performance. Unknown values for each of the analytes localized in a specific multiplex were determined using 4 and 5 parameter, weighted and non-weighted curve fitting algorithms included in the data analysis package. The intra-sample coefficient of variance (CV) for all antigens with concentrations above the lowest detectable dose (LDD) was less than 20%, and was less than 10% for more than 50% of the antigens tested.
as §3

[6] = End LG, 500 mg/d, 56 days, n = 10, mean ± SEM
[7] = serum, End LG, 500 mg/d, 56 days, n = 10, mean ± SEM

SMILES: CC1(C)O[C@H]2CC(=O)OC[C@]23[C@H]2CC[C@@](C)([C@@H](O[C@@H]4O[C@H](CO)[C@@H](O)[C@H](O)[C@H]4O)c4ccoc4)[C@@]4(O[C@@H]4C(=O)O)[C@]2(C)C(=O)C[C@@H]13 [LG, limonin glucoside]
- GGT ([1]; EDTA plasma, End LG, 500 mg/d, n = 10, mean ± SEM): 25.2 ± 8.0 U/L
- decrease of plasma activity of GGT ([1]; vs end of placebo treatment, 0.5 g/d, p=0.001): 33.8% and 33%
- Lipoprotein A1 [2, 6]: 142.91 ± 4.18 mg/dL
- Lipoprotein B [2, 6]: 114.5 ± 6.45 mg/dL
- Lipoprotein C2 [2, 6]: 6.21 ± 0.50 mg/dL
- Lipoprotein C3 [2, 6]: 13.28 ± 1.05 mg/dL
- Lipoprotein E [2, 6]: 4.91 ± 0.32 mg/dL
- change in plasma concentrations of Apo B ([2]; Table 4): did not find any change
- Cholesterol [2, 7]: 231.70 ± 8.83 mg/dL
- HDL-C [2, 7]: 44.20 ± 2.59 mg/dL
- LDL-C (Calc) [2, 7]: 159.10 ± 7.37 mg/dL
- Non-HDL-C [2, 7]: 187.50 ± 10.63 mg/dL
- Total-C:HDL-C [2, 7]: 5.47 ± 0.47
- Triglycerides [2, 7]: 142.60 ± 23.64 mg/dL
- effect on serum total-, HDL-, LDL-, non-HDL-cholesterol, triglycerides, lipoproteins A1, B, C2, C3, E ([2]; vs end of placebo treatment): did not alter
- CKMB [3]: 2.60 ± 0.50 ng/mL
- Specific gravity [4]: 1.02 ± 0.00
- Adiponectin [5, 6]: 3.19 ± 0.70 µg/mL
- Alpha-1 Antitrypsin [5, 6]: 2.19 ± 0.10 mg/mL
- Alpha-2 Macroglobulin [5, 6]: 0.79 ± 0.06 mg/mL
- Alpha-Fetoprotein [5, 6]: 2.35 ± 0.19 ng/mL
- Apolipoprotein A1 [5, 6]: 0.30 ± 0.01 mg/mL
- Apolipoprotein CIII [5, 6]: 111.60 ± 12.92 µg/mL
- Apolipoprotein H [5, 6]: 257.10 ± 19.26 µg/mL
- Apolipoprotein a [5, 6]: 110.78 ± 57.76 µg/mL
- Beta-2 Microglobulin [5, 6]: 1.46 ± 0.14 µg/mL
- Brain-Derived Neurotrophic Factor [5, 6]: 2.88 ± 0.71 ng/mL
- C Reactive Protein [5, 6]: 1.77 ± 0.26 µg/mL
- CD 40 [5, 6]: 0.76 ± 0.06 ng/mL
- CD 40 Ligand [5, 6]: 0.74 ± 0.27 ng/mL
- Carcinoembryonic Antigen [5, 6]: 1.49 ± 0.36 ng/mL
- Creatine Kinase-MB [5, 6]: 0.30 ± 0.07 ng/mL
- EN-RAGE [5, 6]: 3.45 ± 0.99 ng/mL
- Eotaxin-1 [5, 6]: 71.37 ± 14.78 pg/mL
- Epidermal growth factor [5, 6]: 251.67 ± 48.22
- Epithelial derived-neutrophil-activating protein [5, 6]: 1.68 ± 0.41 ng/mL
- Factor VII [5, 6]: 548.70 ± 64.71 ng/mL
- Ferritin [5, 6]: 137.76 ± 59.13 ng/mL
- Fibrinogen [5, 6]: 4.81 ± 0.29 mg/mL
- Fibroblast growth factor-basic [5, 6]: 102.81 ± 19.33 pg/mL
- Glutathione S-Transferase [5, 6]: 0.56 ± 0.02 ng/mL
- Granulocyte colony-stimulating factor [5, 6]: 5.63 ± 1.12 pg/mL
- Growth hormone [5, 6]: 1.71 ± 0.79 ng/mL
- Haptoglobin [5, 6]: 1.26 ± 0.18 mg/mL
- ICAM-1 [5, 6]: 105.01 ± 13.81 ng/mL
- Immunoglobulin A [5, 6]: 2.14 ± 0.54 mg/mL
- Immunoglobulin E [5, 6]: 28.89 ± 6.20 ng/mL
- Immunoglobulin M [5, 6]: 1.85 ± 0.23 mg/mL
- Insulin [5, 6]: 2.94 ± 0.53 μIU/mL
- Interleukin-1 beta [5, 6]: 0.50 ± 0.14 pg/mL
- Interleukin-1 receptor antagonist [5, 6]: 105.05 ± 14.03 pg/mL
- Interleukin-3 [5, 6]: 0.05 ± 0.01 ng/mL
- Interleukin-4 [5, 6]: 62.87 ± 8.35 pg/mL
- Interleukin-5 [5, 6]: 3.80 ± 0.77 pg/mL
- Interleukin-7 [5, 6]: 51.27 ± 7.39 pg/mL
- Interleukin-8 [5, 6]: 11.26 ± 1.25 pg/mL
- Interleukin-10 [5, 6]: 10.92 ± 2.07 pg/mL
- Interleukin-12p 70 [5, 6]: 59.91 ± 2.15 pg/mL
- Interleukin-13 [5, 6]: 59.52 ± 6.77 pg/mL
- Interleukin-15 [5, 6]: 0.45 ± 0.09 ng/mL
- Interleukin-16 [5, 6]: 404.90 ± 32.28 pg/mL
- Interleukin-18 [5, 6]: 237.45 ± 24.67 pg/mL
- Leptin [5, 6]: 15.00 ± 4.12 ng/mL
- Macrophage inflammatory protein-1α [5, 6]: 106.76 ± 12.39 pg/mL
- Macrophage inflammatory protein-1β [5, 6]: 183.58 ± 36.53 pg/mL
- Matrix metalloproteinase-2 [5, 6]: 2.20 ± 156.40 µg/mL
- Monocyte chemotactic protein-1 [5, 6]: 164.84 ± 16.25 pg/mL
- Monocyte derived chemokine [5, 6]: 426.10 ± 40.45 pg/mL
- Myeloperoxidase [5, 6]: 147.83 ± 22.42 ng/mL
- Myoglobin [5, 6]: 14.94 ± 2.39 ng/mL
- Plasminogen activator inhibitor-1 [5, 6]: 69.86 ± 15.86 ng/mL
- Pregnancy associated plasma protein A [5, 6]: 0.02 ± 0.00 mIU/mL
- Prostatic Acid Phosphatase [5, 6]: 0.17 ± 0.02 ng/mL
- Serum amyloid P-component [5, 6]: 16.61 ± 0.94 µg/mL
- Serum glutamic oxaloacetic transaminase [5, 6]: 9.67 ± 1.64 µg/mL
- Sex hormone binding globulin [5, 6]: 33.29 ± 5.40 nmol/L
- Stem Cell Factor [5, 6]: 351.05 ± 50.76 pg/mL
- T-cell specific protein, RANTES [5, 6]: 16.48 ± 3.62 ng/mL
- Thrombopoietin [5, 6]: 1.40 ± 0.22 ng/mL
- Thyroid Stimulating Hormone [5, 6]: 1.72 ± 0.30 μIU/mL
- Thyroxine Binding Globulin [5, 6]: 46.51 ± 2.84 µg/mL
- Tissue factor [5, 6]: 0.45 ± 0.03 ng/mL
- Tissue inhibitor of metalloproteinases-1 [5, 6]: 87.97 ± 8.38 ng/mL
- Tumor necrosis factor receptor-like 2 [5, 6]: 3.83 ± 0.25 ng/mL
- Tumor necrosis factor α [5, 6]: 3.58 ± 0.68 pg/mL
- Vascular cell adhesion molecule-1 [5, 6]: 508.80 ± 49.79 ng/mL
- Vascular endothelial growth factor [5, 6]: 883.55 ± 268.15 pg/mL
- Von Willebrand Factor [5, 6]: 30.03 ± 3.09 µg/mL
- tumor necrosis factor α (p=0.085), matrix metalloproteinase-9 (p=0.118), serum amyloid P (p=0.188) with supplementation ([5]; not significant): trends for decrease
- Matrix metalloproteinase-2 ([5]; second line so named (r60), End LG, 500 mg/d, 56 days, n = 10, mean ± SEM): 0.07601 ± 0.02246 µg/mL
